Read-outs that look alike come from different tables or passages of the source.

In assay [1] the test system is SW480 colon adenocarcinoma cells. Also noted: method as in PMID 38426897. The settings on record: MTT assay, exposure time 96 h; ref [5]; read-out: 50% inhibitory concentration SW480 (chlorido complexes, reference) (converted); cited from earlier work. (Tetrazolium dyes change colour on reduction, which living cells bring about.)
Assay [2] relates to CH1/PA-1 ovarian teratocarcinoma cells. Also noted: method as in PMID 38426897. The note with it: MTT assay, exposure time 96 h; ref [5]; read-out: 50% inhibitory concentration CH1 (chlorido complexes, reference) (converted); cited from earlier work.
Assay [3] relates to A549 lung adenocarcinoma cells. Also noted: method as in PMID 38426897. The settings on record: MTT assay, exposure time 96 h; ref [5]; read-out: 50% inhibitory concentration A549 (chlorido complexes, reference) (converted); cited from earlier work.
In assay [4] the test system is SW480 colon adenocarcinoma cells. The experiment in a line: MTT assay, inhibition of cancer cell growth, SW480. The note with it: read-out: 50% inhibitory concentration SW480, exposure time 96 h.
Method: (§1) CH1/PA-1 ovarian teratocarcinoma cells (CH1, RRID: CVCL_4992, provided by L. R. Kelland, CRC Center for Cancer Therapeutics, Institute of Cancer Research, Sutton, UK; confirmed by STR profiling as PA-1 ovarian teratocarcinoma cells at Multiplexion, Heidelberg, Germany), SW480 colon adenocarcinoma (RRID: CVCL_0546), and A549 lung adenocarcinoma cells (NCI-H2618, RRID: CVCL_A549; both cell lines were obtained from the American Type Culture Collection (ATCC), Manassas, VA, USA) were grown as adherent cultures in 75-cm^2 culture flasks (Starlab, Hamburg, Germany) by using minimal essential medium (MEM) supplemented with 1 mM sodium pyruvate, 4 mM L-glutamine, 1% (v/v) nonessential amino acids from 100-fold stock (all purchased from Sigma-Aldrich), and 10% heat-inactivated fetal bovine serum (Serana, Pessin, Germany).
(§2) The 3-(4,5-dimethylthiazol-2-yl)-2,5-diphenyl-2H tetrazolium bromide (MTT, Acros Organics, Geel, Belgium) assay was used to detect the cytotoxicity of the compounds after 96-h incubation. For this purpose, cells were harvested from culture flasks by trypsinization, seeded in 100-μL aliquots into 96-well microculture plates (Starlab, UK) in densities of 1 × 10^3 (CH1/PA-1), 2 × 10^3 (SW480), and 3 × 10^3 (A549) cells per well and incubated for 24 h prior to exposure to the test compounds. Stock solutions of test compounds were prepared in DMF, which were then diluted in MEM (not to exceed a final content of 0.5% v/v of organic solvent in the test plates), and serial dilutions were added in aliquots of 100 μL per well. […] After incubation for 4 h, the medium/MTT mixtures were removed, and the produced formazan crystals were dissolved in 150 μL DMSO per well. Optical densities at 550 nm were measured spectrophotometrically with a ELx808 Absorbance Microplate Reader (Bio-Tek, Winooski, VT, USA) by using a reference wavelength of 690 nm to correct for unspecific absorption.
Assay [5] concerns HCT116 colorectal cancer cell line (2D). The experiment in a line: Resazurin assay, HCT116 2D (monolayer) culture. The note with it: read-out: IC50 2D, resazurin assay, 96 h exposure. Background: The colour change of resazurin is a common sign of viable cells or microbes.
Method: Both models were investigated by the fluorimetric resazurin assay after 96-h exposure.
HCT116 colorectal carcinoma cells (RRID:CVCL_0291 from ATCC) were cultivated in McCoy's 5A medium, supplemented with 10% heat-inactivated fetal bovine serum and 4 mM L-glutamine.
For 2D experiments, HCT116 cells were harvested from culture flasks by trypsinization, seeded in 100-μL aliquots into 96-well microculture plates (CytoOne, TC-treated, from Starlab) in densities of 2 × 10^3 cells per well, and incubated for 24 h prior to exposure to the test compounds. […] Stock solutions of test compounds were prepared in DMF, which were then diluted in McCoy's 5A-supplemented medium (not to exceed a final content of 0.5% v/v of organic solvent in the test plates), and serial dilutions were added in aliquots of 100 μL per well. […] After incubation for 4 h, fluorescence was measured with a microplate reader (Bio-Tek, SynergyHT) at a wavelength of 530 nm, additionally using a reference wavelength of 620 nm.
Assay [6] deals with CH1/PA-1 ovarian teratocarcinoma cells. The experiment in a line: MTT assay, inhibition of cancer cell growth, CH1/PA-1. The note with it: read-out: 50% inhibitory concentration CH1, exposure time 96 h.
Method: as §1, §2
For assay [7], the system named is HCT116 multicellular tumor spheroids (3D). The experiment in a line: Resazurin assay, HCT116 3D multicellular tumor spheroids. The note with it: read-out: IC50 3D; HCT116 3D spheroids, resazurin assay, 96 h exposure.
Assay [8] deals with A549 lung adenocarcinoma cells. As to the kind of experiment: MTT assay, inhibition of cancer cell growth, A549. The note with it: read-out: 50% inhibitory concentration A549, exposure time 96 h.
Method: as §1, §2
The next assay concerns SW480 cells. As to the kind of experiment: DCFH-DA assay, cellular ROS levels. The format is cell-based, human. The settings on record: for Effect on intracellular ROS levels: 2 h, concentration dependent. The procedure: For this approach, SW480 cells were subjected to the 2′,7′-dichlorofluorescin-diacetate (DCFH-DA) assay.
SW480 colon adenocarcinoma cells were trypsinized for 5 min in a humidified incubator at 37°C and under a 5% CO2 atmosphere. Supplemented MEM was added to stop trypsinization, and cells were centrifuged for 3 min at 1200 rpm (Heraeus Megafuge 1.0R). After cell counting, SW480 cells were seeded in 100-μL aliquots in densities of 2.5 × 10^4 cells/well into 96-well clear flat-bottom microplates (CytoOne, TC-treated, from Starlab). After incubation for 24 h, cells were washed with 200 μL of Hanks' balanced salt solution (HBSS; Sigma-Aldrich; supplemented with 1% heat-inactivated FCS). […] After washing cells with 200 μL of supplemented HBSS, serially diluted test compounds in phenol-red-free Opti-MEM (Gibco), supplemented with 1% heat-inactivated FCS, were added in 200-μl triplicates and tert-butyl hydroperoxide (TBHP) was applied as positive control. […] Blank-corrected values were calculated relative to negative controls (treated with drug-free supplemented Opti-MEM) from three independent experiments.

Regarding `Cc1ccc(C(C)C)cc1.Fc1ccc(-c2cscn2)[c]([Ru][Cl])c1` [Compound 1b], the results for the IC50 in [1], in [2] and in assay [3] were 8.6 µM, 3.4 µM and 16 µM, respectively.
For `COc1ccc(-c2cscn2)[c]([Ru][Cl])c1.Cc1ccc(C(C)C)cc1` [Compound 1e], the IC50 is 17 µM in assay [1], 7.3 µM in assay [2] and 27 µM in assay [3].
For `Cc1ccc(C(C)C)cc1.[Cl][Os][c]1ccccc1-c1cscn1` [Compound 2a], the IC50 in assay [1] was 9.3 µM; in [2] it was 3 µM; in assay [3], 17 µM.
On to `Cc1ccc(C(C)C)cc1.Fc1ccc(-c2cscn2)[c]([Os][Cl])c1` [Compound 2b], for which the IC50 in assay [1] was 7.1 µM; in assay [2], 2 µM; in assay [3], 10 µM.
In the case of `CS(=O)(=O)c1ccc(-c2cscn2)[c]([Os][Cl])c1.Cc1ccc(C(C)C)cc1` [Compound 2c], the IC50 in [1] was 4.4 µM; in assay [2] it was 0.83 µM; in [3], 10 µM.
With `Cc1ccc(-c2cscn2)[c]([Os][Cl])c1.Cc1ccc(C(C)C)cc1` [Compound 2d], the IC50 was 9.3 µM in assay [1], 3.7 µM in assay [2] and 17 µM in assay [3].
With `COc1ccc(-c2cscn2)[c]([Os][Cl])c1.Cc1ccc(C(C)C)cc1` [Compound 2e], the IC50 was 7.1 µM in assay [1], 2.2 µM in assay [2] and 14 µM in assay [3].
Consider `Cc1ccc(C(C)C)cc1.Cn1cc[n+]([Os-]2[c]3ccccc3-c3csc[n+]32)c1.O=[N+]([O-])[O-]` [Compound 4a, [((3-κN)-1-Methylimidazole)(4-phenylthiazolato-κN,κC2′)(η^6-p-cymene)osmium(II)] Nitrate], for which the IC50 in [4] worked out at 5.9 ± 1.9 µM; in [5], 9.6 ± 1.2 µM; in assay [6] it was 2.3 ± 0.2 µM; in assay [7] it was 9.4 ± 4.6 µM; in assay [8], 12 ± 1 µM. In addition, the “Effect on intracellular ROS levels” value in the assay with SW480 cells is reported as “initially lowers ROS levels”.
For the molecule `Cc1ccc(C(C)C)cc1.Cn1cc[n+]([Os-]2[c]3cc(F)ccc3-c3csc[n+]32)c1.O=[N+]([O-])O` [Compound 4b, [((3-κN)-1-Methylimidazole)(4-(4-fluorophenyl)thiazolato-κN,κC2′)(η^6-p-cymene)osmium(II)] Nitrate], the IC50 in [4] stood at 7.4 ± 2.3 µM; in assay [6] it was 2.7 ± 0.2 µM; in [8] it was 20 ± 2 µM.
With `Cc1ccc(C(C)C)cc1.Cn1cc[n+]([Os-]2[c]3cc(S(C)(=O)=O)ccc3-c3csc[n+]32)c1.O=[N+]([O-])[O-]` [Compound 4c, [((3-κN)-1-Methylimidazole)(4-(4-(methylsulfonyl)phenyl)thiazolato-κN,κC2′)(η^6-p-cymene)osmium(II)] Nitrate], the IC50 is above 200 µM in [4]; above 200 µM in [5]; above 200 µM in assay [6]; 344 ± 19 µM in assay [7]; above 200 µM in assay [8]. The “Effect on intracellular ROS levels” value in the assay with SW480 cells is listed as “initially lowers ROS levels”.
Regarding `Cc1ccc(C(C)C)cc1.Cc1ccc2[c](c1)[Os-]([n+]1ccn(C)c1)[n+]1cscc1-2.O=[N+]([O-])O` [Compound 4d, [((3-κN)-1-Methylimidazole)(4-(4-methylphenyl)thiazolato-κN,κC2′)(η^6-p-cymene)osmium(II)] Nitrate], the IC50 in assay [4] stood at 3.4 ± 0.9 µM; in assay [6], 1.2 ± 0.2 µM; in assay [8] it was 7.1 ± 0.6 µM.
Taken in the same sequence, the figures for `COc1ccc2[c](c1)[Os-]([n+]1ccn(C)c1)[n+]1cscc1-2.Cc1ccc(C(C)C)cc1.O=[N+]([O-])O` [Compound 4e, [((3-κN)-1-Methylimidazole)(4-(4-methoxyphenyl)thiazolato-κN,κC2′)(η^6-p-cymene)osmium(II)] Nitrate] were 8.1 ± 2.6 µM, 2.1 ± 0.5 µM and 24 ± 1 µM.
As for `CC(C)(C)OO` [positive control, tert-butyl hydroperoxide, reference compound], the “Elevation of ROS levels vs negative control” value in the assay on SW480 cells (positive control) is reported as “more than 3 fold”.

Values taken from article PMC12463534, “Exploring the Anticancer Properties of 4-Phenylthiazole-Based Ru(II) and Os(II) Metallacycles Featuring 1-Methylimidazole as N-Donor Functionality” (Bioinorganic Chemistry and Applications, 2025).
